In patent publication US5407823A, “Polypeptides having a dopaminergic receptor activity, nucleic acids coding for these polypeptides and use of these polypeptides for the screening of substances active on these polypeptides” (priority 1990, dated 1995):
Where two headings read alike, the source gives them in different places.

Assays:
D-2 receptor = assay: 7 OHDPAT-3H specific binding to membranes of CHO cells expressing the D-2 receptor; parameters: species or system rat; conditions: increasing concentrations of radioligand
[1] = target: T1, D-2 receptor expressed in CHO cells (Rattus norvegicus, UniProt P61169); assay: Inhibition of 125I-iodosulpride binding to membranes of transfected CHO cells (D-2); conditions: for Kd: saturation kinetics at equilibrium, permanently transfected CHO cells
T1 construct: expressed in transfected cells
Description: (§1) As far as the measurement of the affinity of the agonists or antagonists towards the polypeptides of the invention is concerned, it may be made under the following conditions:
(§2) The terms agonists and antagonists refer to the actions of the medicines on the D-2 receptors.
(§3) The β2 adrenergic receptor is excised from pSV β2 -MDH by digestions with HindIII and EcoRI and replaced by a SmaI-EcoRI restriction fragment of the clone of the D-2A receptor by using a blunt-ended HindIII nucleotide adaptor leading to the plasmid pSV D-2. The vector needed to express the D-3 receptor is obtained by replacing the HindIII-BglII restriction fragment of pSV D-2 by a EcoRI-BglII restriction fragment of the clone RT-PCR B, by using a HindIII-EcoRI oligonucleotide adaptor leading to the plasmid pSV D-3. […] The stable transfectants are selected in a culture medium (Dulbecco's Modified Eagle medium) not containing hypoxanthine and thymidine.

[2] = target: T2, D-3 receptor expressed in CHO cells (Rattus norvegicus, UniProt P19020); assay: Inhibition of 125I-iodosulpride binding to membranes of transfected CHO cells (D-3); conditions: for Ratio Ki D-2/Ki D-3: D-2 and D-3 receptors expressed in CHO cells
T2 construct: expressed in transfected cells
Description: as §1, §2, §3

[3] = competition with 125I-iodosulpride, CHO cell membranes, mean ± standard deviation, 2-3 experiments, read-out: Ki Value D-3 receptor
[4] = competition with 125I-iodosulpride, CHO cell membranes, mean ± standard deviation, 2-3 experiments, read-out: Ki Value D-2 receptor

T2 sequence (P19020 whole entry): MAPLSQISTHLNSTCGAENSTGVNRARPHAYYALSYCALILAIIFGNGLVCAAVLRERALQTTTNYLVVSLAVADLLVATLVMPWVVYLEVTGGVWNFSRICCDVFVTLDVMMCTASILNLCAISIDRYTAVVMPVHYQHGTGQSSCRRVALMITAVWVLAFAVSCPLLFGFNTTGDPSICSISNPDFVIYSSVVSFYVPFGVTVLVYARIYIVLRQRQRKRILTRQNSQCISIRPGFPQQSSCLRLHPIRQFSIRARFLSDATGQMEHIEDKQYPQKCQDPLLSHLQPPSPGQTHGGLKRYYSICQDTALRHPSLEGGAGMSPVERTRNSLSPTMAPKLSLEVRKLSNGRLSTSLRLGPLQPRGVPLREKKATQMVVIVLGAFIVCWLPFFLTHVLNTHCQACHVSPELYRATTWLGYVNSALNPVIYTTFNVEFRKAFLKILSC
T1 sequence (P61169 whole entry): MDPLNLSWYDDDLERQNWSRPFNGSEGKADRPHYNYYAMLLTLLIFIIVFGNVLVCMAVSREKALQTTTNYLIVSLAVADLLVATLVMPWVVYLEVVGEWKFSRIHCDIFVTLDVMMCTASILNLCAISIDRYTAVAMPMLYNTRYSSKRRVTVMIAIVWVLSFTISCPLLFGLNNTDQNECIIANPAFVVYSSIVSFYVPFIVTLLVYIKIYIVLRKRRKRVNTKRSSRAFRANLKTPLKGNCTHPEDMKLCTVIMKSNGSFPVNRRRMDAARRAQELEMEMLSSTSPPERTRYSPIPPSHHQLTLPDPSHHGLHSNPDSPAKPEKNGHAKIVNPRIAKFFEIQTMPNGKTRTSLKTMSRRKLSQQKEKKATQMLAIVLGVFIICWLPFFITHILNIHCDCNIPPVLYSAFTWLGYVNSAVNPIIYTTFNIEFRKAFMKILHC

| Compound | Comparison of affinities for D-2 and D-3 receptors (in words) [2] | Ratio Ki D-2/Ki D-3 [2] | Ki [2, 3] [nM] | further results |
| --- | --- | --- | --- | --- |
| CCCN(CCC)C1CCc2ccc(O)cc2C1 (stereo not drawn) [7 OHDPAT-^3 H, 7-hydroxy N,N'-dipropylaminotetraline radiolabelled with tritium] |  |  |  | Binding to membranes of cells expressing the D-2 receptor (D-2 receptor): only very slightly |
| CCCN[C@@H]1CCc2c(OC)cccc2[C@@H]1C [(+)AJ 76] | somewhat but significantly higher affinities for the D-3 receptor than the D-2 receptor | 3.0 | 91 ± 5 | Ki [1]: 270 ± 14 nM |
| CCCN(CCC)[C@@H]1CCc2c(OC)cccc2[C@@H]1C [(+)UH 232] | somewhat but significantly higher affinities for the D-3 receptor than the D-2 receptor | 4.4 |  | Ki [1]: 40 ± 1 nM; Ki [2]: 9.2 ± 0.1 nM |
| CN1CCc2cccc3c2[C@H]1Cc1ccc(O)c(O)c1-3 [Apomorphine] |  |  |  | Ki ([2]; read-out: Ki Value D-3 receptor): 20 ± 3 nM |
| CC(C)C[C@H]1C(=O)N2CCC[C@H]2[C@]2(O)O[C@](NC(=O)[C@@H]3C=C4c5cccc6[nH]c(Br)c(c56)C[C@H]4N(C)C3)(C(C)C)C(=O)N12 [Bromocriptine] |  | 0.7 | 7.4 ± 1.3 | Ki [1, 4]: 5.3 ± 0.6 nM |
| NCCc1ccc(O)c(O)c1 [Dopamine] |  |  |  | Effect of Gpp(NH)p on displacement curve, D-2 receptor ([1]; presence of Gpp(NH)p): shifted to the right |
| CCCN1C[C@H](CSC)C[C@@H]2c3cccc4[nH]cc(c34)C[C@H]21 [Pergolide] | much less affinity for the D-3 receptor than for the D-2 receptor |  |  |  |
| CCN1CCC[C@H]1CNC(=O)c1c(O)c(Cl)cc(Cl)c1OC [Raclopride] |  |  | 3.5 ± 0.3 |  |
| Oc1cc2c(cc1O)C(c1ccccc1)CNCC2 (stereo not drawn) [SKF 38393] |  |  |  | Ki [2]: 5000 nM |
| CN(C)C1CCc2cc(O)c(O)cc2C1 (stereo not drawn) [TL 99] | much less affinity for the D-3 receptor than for the D-2 receptor |  |  |  |
| CN1CCN(CCCN2c3ccccc3Sc3ccc(S(=O)(=O)N(C)C)cc32)CC1 [Thioproperazine] |  |  | 1.7 ± 0.1 | Ki [1, 4]: 0.21 ± 0.01 nM |
| Iodosulpride |  | 0.52 |  | Kd [1]: 0.61 ± 0.05 nM; Kd ([1]; listed as 125 I-iodosulpride): 0.6 nM; Kd ([2]; saturation kinetics at equilibrium, permanently transfected CHO cells): 1.2 ± 0.2 nM |
